Measured values taken from DBAASP.
≈ marks a conversion by molar mass, not a printed value. Where “and” joins values, the source holds several entries; their conditions need not be identical. Equal values may be shown once.

Experiments:
Assay in all cases: ≥ marks a high value that may be exact or a test limit, other limits are often not marked, values filed in µg/mL are converted to µM
[1] = system: Candida albicans CGMCC 2.2086
Escherichia coli UB1005 = system: Escherichia coli UB1005
[2] = system: Staphylococcus aureus ATCC 43300
Escherichia coli K88 = system: Escherichia coli K88
[3] = system: Pseudomonas aeruginosa ATCC 27853
Escherichia coli K99 = system: Escherichia coli K99
[4] = system: Staphylococcus epidermidis ATCC 12228
[5] = system: Salmonella enterica subsp. enterica serovar Pullorum ATCC 7913
[6] = system: Candida parapsilosis CGMCC 2.3989
Escherichia coli 078 = system: Escherichia coli 078
[7] = system: Salmonella enterica subsp. enterica serovar Typhimurium ATCC 14028
[8] = system: Candida tropicalis CGMCC 2.1975
[9] = system: Salmonella enterica subsp. enterica serovar Typhimurium C77-31
[10] = system: Staphylococcus aureus ATCC 25923
[11] = system: Staphylococcus aureus ATCC 29213
[12] = system: Staphylococcus aureus NCTC 12493
[13] = system: Candida albicans NCYC 1467
[14] = system: Staphylococcus aureus NCTC 10788
[15] = system: Klebsiella pneumoniae ATCC 43816
[16] = system: Enterococcus faecalis NCTC 12697
[17] = system: Escherichia coli NCTC 10418
[18] = system: Escherichia coli ATCC 25922
[19] = system: Candida albicans ATCC 24433
[20] = system: Enterococcus faecalis ATCC 29212
[21] = system: Salmonella enterica subsp. enterica serovar Choleraesuis CVCC 503
Candida albicans = system: Candida albicans
[22] = system: Pseudomonas aeruginosa PAO1
[23] = system: Pseudomonas aeruginosa H1001

Row | Structure (SMILES) | MIC (Escherichia coli UB1005) [µM] | MIC [2] [µM] | MIC [3] [µM] | MIC [4] [µM] | MIC [6] [µM] | MIC [7] [µM] | MIC [8] [µM] | MIC [9] [µM] | MIC [10] [µM] | MIC [11] [µM] | MIC [12] [µM] | MIC [13] [µM] | MIC [14] [µM] | MIC [15] [µM] | MIC [16] [µM] | MIC [17] [µM] | further results
1 | CC[C@H](C)[C@H](NC(=O)[C@H](CCCN=C(N)N)NC(=O)[C@H](C)NC(=O)[C@H](C)N)C(=O)N[C@H](C(=O)N[C@@H](CC(C)C)C(=O)N[C@@H](CCCN=C(N)N)C(=O)N[C@@H](CC(N)=O)C(=O)N[C@@H](CCCN=C(N)N)C(=O)N[C@@H](Cc1ccccc1)C(=O)N[C@@H](CCCN=C(N)N)C(N)=O)[C@@H](C)CC [AARIILRNRFR] | 16 (≈ 22.2 µg/mL) | > 128 | > 128 | > 128 | ≥ 128 | 32 (≈ 44.3 µg/mL) | ≥ 128 | ≥ 32 | > 128 | > 128 |  |  |  |  |  |  | MIC [1]: ≥ 128 µM; MIC (Escherichia coli K88): ≥ 32 µM; MIC (Escherichia coli K99): 16 µM (≈ 22.2 µg/mL); MIC [5]: 16 µM (≈ 22.2 µg/mL); MIC (Escherichia coli 078): 16 µM (≈ 22.2 µg/mL)
2 | CC[C@H](C)[C@H](NC(=O)[C@H](C)NC(=O)[C@H](C)NC(=O)[C@@H]1CCCN1C(=O)[C@@H](NC(=O)[C@H](CC(C)C)NC(=O)[C@H](CCCCN)NC(=O)CNC(=O)[C@H](C)NC(=O)[C@@H](NC(=O)[C@H](CCCCN)NC(=O)[C@H](CC(C)C)NC(=O)[C@@H](NC(=O)[C@H](C)NC(=O)CNC(=O)[C@H](CC(C)C)NC(=O)[C@@H](N)Cc1ccccc1)C(C)C)C(C)C)C(C)C)C(=O)O [FLGAVLKVAGKLVPAAI] |  |  |  |  |  |  |  |  |  |  | ≥ 512 | ≥ 512 | ≥ 512 | ≥ 512 | ≥ 512 | ≥ 512 | 
3 | CC[C@H](C)[C@H](NC(=O)CNC(=O)[C@@H](NC(=O)[C@H](C)NC(=O)[C@@H](NC(=O)[C@H](Cc1cnc[nH]1)NC(=O)[C@@H]1CCCN1C(=O)[C@@H](NC(=O)[C@H](CC(C)C)NC(=O)[C@H](CO)NC(=O)[C@H](CC(C)C)NC(=O)[C@@H](N)Cc1ccccc1)[C@@H](C)CC)[C@@H](C)CC)[C@@H](C)O)C(=O)N[C@@H](C)C(=O)N[C@@H](C)C(=O)N[C@@H](CC(C)C)C(=O)N[C@@H](C)C(=O)N[C@@H](CCCCN)C(=O)N[C@@H](Cc1cnc[nH]1)C(=O)N[C@@H](CC(C)C)C(N)=O [FLSLIPHIATGIAALAKHL] |  |  |  | 12.5 (≈ 24.8 µg/mL) |  |  |  |  |  |  |  |  |  |  |  |  | MIC [18]: 50 µM (≈ 99.3 µg/mL); MIC [19]: ≥ 100 µM
4 | CC(C)C[C@H](NC(=O)[C@H](CCC(N)=O)NC(=O)[C@H](CCC(N)=O)NC(=O)[C@H](C)NC(=O)CNC(=O)[C@H](C)NC(=O)[C@H](CCCCN)NC(=O)CNC(=O)[C@@H](NC(=O)[C@H](CCC(N)=O)NC(=O)[C@H](CCCCN)NC(=O)[C@H](C)NC(=O)[C@H](CC(C)C)NC(=O)[C@H](Cc1ccc(O)cc1)NC(=O)[C@H](CCCCN)NC(=O)[C@H](C)NC(=O)CNC(=O)[C@H](C)NC(=O)[C@H](CCCCN)NC(=O)[C@H](Cc1ccccc1)NC(=O)[C@H](CC(C)C)NC(=O)[C@H](CO)NC(=O)[C@H](CO)NC(=O)[C@H](Cc1ccccc1)NC(=O)CN)C(C)C)C(N)=O [GFSSLFKAGAKYLAKQVGKAGAQQL] |  |  | 32 (≈ 82.2 µg/mL) |  |  |  |  |  |  |  | 16 (≈ 41.1 µg/mL) | 16 (≈ 41.1 µg/mL) | 8 (≈ 20.5 µg/mL) | ≥ 128 | 8 (≈ 20.5 µg/mL) | 8 (≈ 20.5 µg/mL) | 
5 | CC[C@H](C)[C@@H]1NC(=O)[C@H](C)NC(=O)[C@@H](NC(=O)[C@H](Cc2ccccc2)NC(=O)[C@H](Cc2c[nH]c3ccccc23)NC(=O)[C@H](CCCCN)NC(=O)[C@H](Cc2c[nH]c3ccccc23)NC(=O)[C@@H]2CCCN2C(=O)[C@H](CC(C)C)NC(=O)[C@H](Cc2ccccc2)NC(=O)[C@@H](N)CCCCN)CSSC[C@@H](C(=O)O)NC(=O)[C@H](CCCCN)NC(=O)[C@H](CCCCN)NC(=O)[C@H]([C@@H](C)O)NC1=O [KFLPWKWFCAITKKC] |  |  | 64 (≈ 121 µg/mL) |  |  |  |  |  |  |  | 8 (≈ 15.2 µg/mL) | 16 (≈ 30.4 µg/mL) | 8 (≈ 15.2 µg/mL) | ≥ 32 | ≥ 256 | 16 (≈ 30.4 µg/mL) | 
6 | CC(C)C[C@H](NC(=O)[C@H](CCCCN)NC(=O)[C@H](CCCCN)NC(=O)[C@H](CC(C)C)NC(=O)[C@H](CCCN=C(N)N)NC(=O)[C@H](CS)NC(=O)[C@H](C)NC(=O)[C@H](CC(C)C)NC(=O)[C@H](CCCCN)NC(=O)[C@H](CCCCN)NC(=O)[C@H](CC(C)C)NC(=O)[C@H](CCCN=C(N)N)NC(=O)[C@H](CS)NC(=O)[C@H](C)NC(=O)[C@H](CC(C)C)NC(=O)[C@H](CCCCN)NC(=O)[C@H](CCCCN)NC(=O)[C@@H](N)CC(C)C)C(=O)N[C@@H](C)C(=O)N[C@@H](CS)C(=O)N[C@@H](CCCN=C(N)N)C(N)=O [LKKLACRLKKLACRLKKLACR] | 2 (≈ 4.91 µg/mL) | 4 (≈ 9.83 µg/mL) | 4 (≈ 9.83 µg/mL) | 16 (≈ 39.3 µg/mL) | 8 (≈ 19.7 µg/mL) | 4 (≈ 9.83 µg/mL) | 1 (≈ 2.46 µg/mL) | 8 (≈ 19.7 µg/mL) | 16 (≈ 39.3 µg/mL) | 8 (≈ 19.7 µg/mL) |  |  |  |  |  |  | MIC [1]: 8 µM and 16 µM; MIC [20]: 16 µM (≈ 39.3 µg/mL); MIC [21]: 2 µM (≈ 4.91 µg/mL); MIC (Candida albicans): 4 µM (≈ 9.83 µg/mL); MIC [22]: 4 µM (≈ 9.83 µg/mL)
7 | CC(C)C[C@H](NC(=O)[C@H](CCCN=C(N)N)NC(=O)[C@H](C)NC(=O)[C@H](CS)NC(=O)[C@H](CC(C)C)NC(=O)[C@H](CCCCN)NC(=O)[C@H](CCCCN)NC(=O)[C@H](CC(C)C)NC(=O)[C@H](CCCN=C(N)N)NC(=O)[C@H](C)NC(=O)[C@H](CS)NC(=O)[C@H](CC(C)C)NC(=O)[C@H](CCCCN)NC(=O)[C@H](CCCCN)NC(=O)[C@@H](N)CC(C)C)C(=O)N[C@@H](CCCCN)C(=O)N[C@@H](CCCCN)C(=O)N[C@@H](CC(C)C)C(=O)N[C@@H](CS)C(=O)N[C@@H](C)C(=O)N[C@@H](CCCN=C(N)N)C(N)=O [LKKLCARLKKLCARLKKLCAR] | 2 (≈ 4.91 µg/mL) | 32 (≈ 78.6 µg/mL) | 16 (≈ 39.3 µg/mL) | > 64 | 8 (≈ 19.7 µg/mL) | 32 (≈ 78.6 µg/mL) | 2 (≈ 4.91 µg/mL) | ≥ 64 | > 64 | > 64 |  |  |  |  |  |  | MIC [20]: > 64 µM; MIC [21]: 8 µM (≈ 19.7 µg/mL); MIC (Candida albicans): 5.66 µM (≈ 13.9 µg/mL); MIC [22]: 16 µM (≈ 39.3 µg/mL)
8 | CC[C@H](C)[C@H](NC(=O)[C@H](CCCN=C(N)N)NC(=O)[C@H](CCCN=C(N)N)NC(=O)[C@@H]1CCCN1C(=O)[C@@H]1CCCN1C(=O)[C@H](CCCN=C(N)N)NC(=O)[C@@H]1CCCN1C(=O)[C@H](CCCN=C(N)N)NC(=O)[C@@H]1CCCN1C(=O)[C@H](CC(C)C)NC(=O)[C@H](Cc1ccc(O)cc1)NC(=O)[C@@H]1CCCN1C(=O)[C@@H]1CCCN1C(=O)[C@H](CCCCN)NC(=O)[C@H](CC(=O)O)NC(=O)[C@@H](N)C(C)C)C(=O)N[C@@H](Cc1ccc(O)cc1)C(=O)N[C@@H](CCCCN)C(=O)N[C@@H](CCCN=C(N)N)C(=O)NCC(=O)O [VDKPPYLPRPRPPRRIYKRG] |  |  |  |  |  |  |  |  |  |  |  |  |  |  |  |  | MIC [23]: 0.106 µM (≈ 0.26 µg/mL)
9 | CC(C)C[C@H](NC(=O)[C@H](Cc1ccc(O)cc1)NC(=O)[C@@H]1CCCN1C(=O)[C@@H]1CCCN1C(=O)[C@H](CCCCN)NC(=O)[C@H](CC(=O)O)NC(=O)[C@@H](N)C(C)C)C(=O)N1CCC[C@H]1C(=O)N[C@@H](CCCN=C(N)N)C(=O)N1CCC[C@H]1C(=O)N[C@@H](CCCN=C(N)N)C(=O)N1CCC[C@H]1C(=O)N1CCC[C@H]1C(=O)N[C@@H](CCCN=C(N)N)C(=O)N[C@@H](CCCN=C(N)N)C(=O)N[C@@H](CCCCN)C(=O)N[C@@H](Cc1ccc(O)cc1)C(=O)N[C@@H](CC(N)=O)C(=O)N[C@@H](CCCN=C(N)N)C(=O)NCC(=O)O [VDKPPYLPRPRPPRRKYNRG] |  |  |  |  |  |  |  |  |  |  |  |  |  |  |  |  | MIC [23]: 0.0487 µM (≈ 0.12 µg/mL)
